{"source": "patent US12274727B2", "about": "(Bazelet Health Systems, Inc., priority 2021, dated 2025)", "origin": "cited, not measured here", "key": {"[1]": {"settings": "with piperine, chronic or single dose regimen"}, "[2]": {"experiment": "not given", "remark": "listed apart in the source"}, "[3]": {"experiment": "not given", "remark": "listed apart in the source"}, "[4]": {"settings": "room temperature"}, "[5]": {"settings": "after one single oral administration"}, "[6]": {"experiment": "not given", "remark": "listed apart in the source"}, "[7]": {"settings": "patch testing in Europe"}}, "data": [{"smiles": "C=C(C)[C@@H]1CCC(C)=C[C@H]1c1c(O)cc(CCCCC)cc1O", "note": "[CBD, Cannabidiol]", "values": [{"measurement": "increase in oral bioavailability compared to control group without piperine", "setting": "[1]", "value": "~2.5", "unit": "fold"}, {"measurement": "degradation by light, average values", "setting": "after 30 days", "value": "up to 15%"}, {"measurement": "maximum degradation, average values", "setting": "stored at 37° C. for 30 days", "value": "up to 20%"}, {"measurement": "formation of THC, yield", "setting": "[2]; artificial gastric fluid without pepsin, first study", "value": 2.9, "unit": "%"}, {"measurement": "conversion into THC (both 8 and 9 isomers)", "setting": "[2]; simulated gastric fluid, another study", "value": "about 49%"}, {"measurement": "sublingually absorbed", "setting": "[3]; emulsified (micronized) CBD products", "value": "up to 35%"}, {"measurement": "oral bioavailability", "setting": "[3]; oral, humans", "value": "approximately 6%"}, {"measurement": "bioavailability from smoked product", "setting": "[3]; smoked", "value": "around 31%"}, {"measurement": "sublingual bioavailability", "setting": "[3]; sublingual", "value": "13-19%"}, {"measurement": "transdermal absorption", "setting": "[3]; transdermal", "value": "about 10%"}]}, {"smiles": "CC(C)=CCC1C(=O)C(C(=O)CC(C)C)=C(O)C(O)(CC=C(C)C)C1=O", "note": "(stereo not drawn) [Humulone, humulone]", "values": [{"measurement": "time to degradation", "setting": "[4]", "value": "about 12 weeks"}]}, {"smiles": "C=C1CC/C=C(\\C)CC[C@@H]2[C@@H]1CC2(C)C", "note": "[β-caryophyllene]", "values": [{"measurement": "Tmax", "setting": "[5]", "value": "> 1", "unit": "h"}]}, {"smiles": "C=C(C)[C@@H]1CCC(C)=C[C@H]1c1c(O)cc(CCCCC)cc1O", "note": "[pharmaceutical CBD]", "values": [{"measurement": "patients reporting similar AEs", "setting": "[6]; another trial", "value": 86, "unit": "%"}, {"measurement": "patients with AEs reported", "setting": "[6]; randomized controlled trial in treatment resistant epilepsy", "value": 93, "unit": "%"}]}, {"smiles": "C=CC(C)(O)CCC=C(C)C", "note": "(stereo not drawn) [Linalool]", "values": [{"measurement": "people found to be allergic to the oxidized form", "setting": "[7]", "value": 7, "unit": "%"}]}]}
